Experimental data from patent US20240199542A1, “SUBSTITUTED PYRROLIDIN-2-ONES, SALTS THEREOF AND THEIR USE AS HERBICIDALLY ACTIVE SUBSTANCES” (Bayer Aktiengesellschaft, priority 2021, published 2024).

Key:
Assay type in all cases: in vivo
[1] = test system: Stellaria media (STEME); test: Herbicidal post-emergence action; details: 1280 g/ha, assessed after ca. 3 weeks
Procedure, shortened: (§1)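 Applied rates were 1280 or 320 g/ha, as aqueous WP or EC spray with 0.5% additive at 600 l water/ha onto single-leaf-stage plants grown 2–3 weeks in sandy loam. Effect was rated visually about 3 weeks later, 0% matching controls and 100% plants dead.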

[2] = test system: Echinochloa crus-galli (ECHCG); test: Herbicidal post-emergence action; details: 1280 g/ha, assessed after ca. 3 weeks
Procedure, shortened: as §1

[3] = test system: Setaria viridis (SETVI); test: Herbicidal post-emergence action; details: 1280 g/ha, assessed after ca. 3 weeks
Procedure, shortened: as §1

[4] = test system: Avena fatua (AVEFA); test: Herbicidal post-emergence action; details: 1280 g/ha, assessed after ca. 3 weeks
Procedure, shortened: as §1

[5] = test system: Stellaria media (STEME); test: Herbicidal pre-emergence action; details: 1280 g/ha, graded after ca. 3 weeks
Procedure, shortened: (§2)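 Sown seeds in sandy loam received the formulated compounds on the covering soil at application rates up to 1280 g/ha, applied in 600 l water/ha with 0.5% additive. Damage was graded visually after about 3 weeks relative to untreated plants.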

[6] = test system: Avena fatua (AVEFA); test: Herbicidal pre-emergence action; details: 1280 g/ha, graded after ca. 3 weeks
Procedure, shortened: as §2

[7] = test system: Glycine max (GLXMA); test: Pre-emergence effects on crop plants; details: 320 g/ha, crop plant
From the text: (§3) Seeds of mono- and dicotyledonous weed plants and crop plants were sown, in plastic or organic planting pots, in sandy loam and covered with soil. The compounds according to the invention, formulated in the form of wettable powders (WP) or as emulsifiable concentrates (EC), were applied to the surface of the covering soil as aqueous suspension or emulsion, with the addition of 0.5% of an additive, at an application rate of 600 1 of water/ha (converted).
(§4) Following treatment, the pots were placed in a greenhouse and kept under optimum growth conditions for the test plants. The visual grading of the damage to the test plants was carried out after ca. 3 weeks in comparison to untreated controls (herbicidal effect in percent (%): 100% effect=plants have died off, 0% effect=as control plants).
(§5) Tables C1 to C3 below show the effects of selected compounds of the general formula (I) according to table 1 on various crop plants and an application rate corresponding to 320 g/ha or below obtained by the experimental procedure mentioned above in biology section A.

[8] = test system: Brassica napus (BRSNW); test: Pre-emergence effects on crop plants; details: 320 g/ha, crop plant
From the text: as §3, §4, §5

[9] = test system: Zea Mays (ZEAMX); test: Pre-emergence effects on crop plants; details: crop plant
From the text: as §3, §4, §5

[10] = test system: Polygonum convolvulus (POLCO); test: Herbicidal post-emergence action; details: 1280 g/ha, assessed after ca. 3 weeks
Procedure, shortened: as §1

[11] = test system: Lolium multiflorum (LOLMU); test: Herbicidal post-emergence action; details: 1280 g/ha, assessed after ca. 3 weeks
Procedure, shortened: as §1

[12] = test system: Lolium rigidum (LOLRI); test: Herbicidal post-emergence action; details: 320 g/ha, assessed after ca. 3 weeks
Procedure, shortened: as §1

[13] = test system: Digitaria sanguinalis (DIGSA); test: Herbicidal post-emergence action; details: assessed after ca. 3 weeks
Procedure, shortened: as §1

[14] = test system: Glycine max (GLXMA); test: Post-emergence effects on crop plants; details: 320 g/ha, crop plant
From the text: (§6) Seeds of mono- and dicotyledonous weed plants and crop plants were sown, in plastic or organic planting pots, in sandy loam, covered with soil and grown in a greenhouse under controlled growth conditions. 2 to 3 weeks after sowing, the test plants were sprayed in the single-leaf stage. The compounds according to the invention, formulated in form of wettable powders (WP) or as emulsifiable concentrates (EC), were sprayed onto the green plant parts as aqueous suspension or emulsion, with the addition of 0.5% of an additive, at an application rate of 600 1 of water/ha (converted). The test plants were placed in the greenhouse for ca. 3 weeks under optimum growth conditions, and then the effect of the preparations was assessed visually in comparison with untreated controls (herbicidal effect in percent (%): 100% effect=plants have died off, 0% effect=as control plants).
(§7) Tables D1 to D3 below show the effects of selected compounds of the general formula (I) according to table 1 on various crop plants and an application rate corresponding to 320 g/ha or below obtained by the experimental procedure mentioned above in biology section B.

[15] = test system: Brassica napus (BRSNW); test: Post-emergence effects on crop plants; details: crop plant Brassica napus (BRSNW)
From the text: as §6, §7

[16] = test system: Zea Mays (ZEAMX); test: Post-emergence effects on crop plants; details: crop plant
From the text: as §6, §7

[17] = test system: Cyperus esculentus (CYPES); test: Herbicidal pre-emergence action; details: 1280 g/ha, graded after ca. 3 weeks
Procedure, shortened: as §2

[18] = test system: Polygonum convolvulus (POLCO); test: Herbicidal pre-emergence action; details: graded after ca. 3 weeks
Procedure, shortened: as §2

[19] = test system: Lolium multiflorum (LOLMU); test: Herbicidal pre-emergence action; details: 1280 g/ha, graded after ca. 3 weeks
Procedure, shortened: as §2

[20] = test system: Lolium rigidum (LOLRI); test: Herbicidal pre-emergence action; details: 320 g/ha, graded after ca. 3 weeks
Procedure, shortened: as §2

[21] = test system: Digitaria sanguinalis (DIGSA); test: Herbicidal pre-emergence action; details: graded after ca. 3 weeks
Procedure, shortened: as §2

[22] = test system: Echinochloa crus-galli (ECHCG); test: Herbicidal pre-emergence action; details: 1280 g/ha, graded after ca. 3 weeks
Procedure, shortened: as §2

[23] = test system: Setaria viridis (SETVI); test: Herbicidal pre-emergence action; details: graded after ca. 3 weeks
Procedure, shortened: as §2

[24] = test system: Alopecurus myosuroides (ALOMY); test: Herbicidal pre-emergence action; details: 1280 g/ha, graded after ca. 3 weeks
Procedure, shortened: as §2

[25] = test system: Viola tricolor (VIOTR); test: Herbicidal pre-emergence action; details: 320 g/ha, graded after ca. 3 weeks
Procedure, shortened: as §2

[26] = test system: Alopecurus myosuroides (ALOMY); test: Herbicidal post-emergence action; details: 1280 g/ha, assessed after ca. 3 weeks
Procedure, shortened: as §1

[27] = test system: Pharbitis purpurea (PHBPU); test: Herbicidal pre-emergence action; details: 1280 g/ha, graded after ca. 3 weeks
Procedure, shortened: as §2

[28] = test system: Veronica persica (VERPE); test: Herbicidal pre-emergence action; details: 1280 g/ha, graded after ca. 3 weeks
Procedure, shortened: as §2

[29] = test system: Matricaria inodora (MATIN); test: Herbicidal pre-emergence action; details: 1280 g/ha, graded after ca. 3 weeks
Procedure, shortened: as §2

[30] = test system: Poa annua (POAAN); test: Herbicidal post-emergence action; details: assessed after ca. 3 weeks
Procedure, shortened: as §1

[31] = test system: Poa annua (POAAN); test: Herbicidal pre-emergence action; details: graded after ca. 3 weeks
Procedure, shortened: as §2

[32] = test system: Amaranthus retroflexus (AMARE); test: Herbicidal pre-emergence action; details: 1280 g/ha, graded after ca. 3 weeks
Procedure, shortened: as §2

[33] = test system: Cyperus esculentus (CYPES); test: Herbicidal post-emergence action; details: 1280 g/ha, assessed after ca. 3 weeks
Procedure, shortened: as §1

CC1(C)CC(=O)C(C(=O)CC2CCC(=O)N2Cc2cccc(F)c2F)C(=O)C1 (racemic) [Example I-179]
80%: Post-emergence activity against STEME [1] | Post-emergence activity against SETVI [3] | Pre-emergence activity against STEME [5]
90%: Post-emergence activity against ECHCG [2] | Post-emergence activity against AVEFA [4] | Pre-emergence activity against AVEFA [6]

COCCOC(=O)CC1CCC(=O)N1Cc1cccc(F)c1F (racemic) [Example I-015]
90%: Post-emergence activity against STEME [1] | Post-emergence activity against SETVI [3] | Post-emergence activity against AVEFA [4] | Pre-emergence activity against ECHCG [22] | Pre-emergence activity against SETVI ([23]; 1280 g/ha) | Pre-emergence activity against ALOMY [24] | Pre-emergence activity against VIOTR [25]
100%: Post-emergence activity against ECHCG [2] | Pre-emergence activity against DIGSA ([21]; 320 g/ha) | Pre-emergence activity against AVEFA [6]
80%: Post-emergence activity against POLCO [10] | Post-emergence activity against LOLMU [11] | Post-emergence activity against LOLRI [12] | Post-emergence activity against DIGSA ([13]; 320 g/ha) | Pre-emergence activity against CYPES [17] | Pre-emergence activity against POLCO ([18]; 1280 g/ha) | Pre-emergence activity against LOLMU [19] | Pre-emergence activity against LOLRI [20]
0%: pre-emergence activity against GLXMA (crop damage) [7] | pre-emergence activity against ZEAMX (crop damage) ([9]; 320 g/ha) | post-emergence activity against GLXMA (crop damage) [14] | post-emergence activity against BRSNW ([15]; application rate 80 g/ha) | post-emergence activity against ZEAMX (crop damage) ([16]; 320 g/ha)
20%: pre-emergence activity against BRSNW (crop damage) [8]

O=C(CC1CCC(=O)N1Cc1cccc(F)c1F)OCCOc1ccc(Cl)cc1 (racemic) [Example I-033]
100%: Pre-emergence activity against AVEFA [6]
80%: Post-emergence activity against ECHCG [2] | Post-emergence activity against ALOMY [26] | Pre-emergence activity against CYPES [17] | Pre-emergence activity against ECHCG [22] | Pre-emergence activity against SETVI ([23]; 1280 g/ha) | Pre-emergence activity against PHBPU [27] | Pre-emergence activity against MATIN [29]
90%: Pre-emergence activity against VERPE [28] | Pre-emergence activity against ALOMY [24]

O=C(CC1CCC(=O)N1Cc1cccc(F)c1F)Nc1ncns1 (stereo not shown) [Example I-193, 2-[1-[(2,3-difluorophenyl)methyl]-5-oxo-pyrrolidin-2-yl]-N-(1,2,4-thiadiazol-5-yl)acetamide]
90%: Post-emergence activity against POAAN ([30]; 1280 g/ha) | Pre-emergence activity against POAAN ([31]; 1280 g/ha)

O=C(O)CC1CCC(=O)N1Cc1ccc(F)c(F)c1F (stereo not shown) [Example I-192, [5-Oxo-1-(2,3,4-trifluorobenzyl)pyrrolidin-2-yl]acetic acid]
100%: Post-emergence activity against POAAN ([30]; 320 g/ha) | Post-emergence activity against POAAN ([30]; 1280 g/ha) | Pre-emergence activity against POAAN ([31]; 320 g/ha) | Pre-emergence activity against POAAN ([31]; 1280 g/ha)
90%: Post-emergence activity against DIGSA ([13]; 1280 g/ha) | Post-emergence activity against ECHCG [2] | Pre-emergence activity against LOLRI [20] | Pre-emergence activity against DIGSA ([21]; 320 g/ha) | Pre-emergence activity against DIGSA ([21]; 1280 g/ha) | Pre-emergence activity against SETVI ([23]; 1280 g/ha) | Pre-emergence activity against ALOMY [24]
80%: Pre-emergence activity against ECHCG [22]
0%: post-emergence activity against BRSNW ([15]; application rate 320 g/ha)

O=C(CC1CCC(=O)N1Cc1cccc(F)c1F)NCc1ccccc1 (racemic) [Example I-055]
80%: Pre-emergence activity against AVEFA [6]
100%: Pre-emergence activity against CYPES [17] | Pre-emergence activity against AMARE [32]

O=C(O)CC1CCC(=O)N1Cc1cccc(F)c1F (single isomer, unassigned) [Example I-014]
0%: pre-emergence activity against GLXMA (crop damage) [7] | pre-emergence activity against BRSNW (crop damage) [8] | pre-emergence activity against ZEAMX (crop damage) ([9]; 80 g/ha) | post-emergence activity against GLXMA (crop damage) [14] | post-emergence activity against BRSNW ([15]; application rate 80 g/ha) | post-emergence activity against ZEAMX (crop damage) ([16]; 80 g/ha)
80%: Post-emergence activity against CYPES [33] | Post-emergence activity against LOLMU [11] | Post-emergence activity against LOLRI [12] | Post-emergence activity against DIGSA ([13]; 320 g/ha) | Post-emergence activity against ALOMY [26] | Post-emergence activity against AVEFA [4] | Pre-emergence activity against ECHCG [22]
100%: Pre-emergence activity against DIGSA ([21]; 320 g/ha) | Pre-emergence activity against ALOMY [24] | Pre-emergence activity against AVEFA [6]
90%: Post-emergence activity against ECHCG [2] | Post-emergence activity against SETVI [3] | Pre-emergence activity against POLCO ([18]; 320 g/ha) | Pre-emergence activity against LOLMU [19] | Pre-emergence activity against LOLRI [20] | Pre-emergence activity against SETVI ([23]; 320 g/ha) | Pre-emergence activity against VIOTR [25]

COC(=O)C1(NC(=O)CC2CCC(=O)N2Cc2cccc(F)c2F)CC1 (racemic) [Example I-048]
80%: Pre-emergence activity against LOLMU [19] | Pre-emergence activity against ALOMY [24]
90%: Pre-emergence activity against AVEFA [6] | Pre-emergence activity against AMARE [32]
